Assay results reported in ChEMBL document CHEMBL5678818, “Discovery of potent SOS1 inhibitors that block RAS activation via disruption of the RAS-SOS1 interaction” (Proc Natl Acad Sci U S A, 2019).

What was measured:
[1] = target: T1, Serine/threonine-protein kinase LATS1 (Homo sapiens) (UniProt O95835); assay: Inhibition of LATS1 (unknown origin) assessed as residual activity at 100 nM by KINOMEscan analysis relative to control
T1 sequence (whole entry): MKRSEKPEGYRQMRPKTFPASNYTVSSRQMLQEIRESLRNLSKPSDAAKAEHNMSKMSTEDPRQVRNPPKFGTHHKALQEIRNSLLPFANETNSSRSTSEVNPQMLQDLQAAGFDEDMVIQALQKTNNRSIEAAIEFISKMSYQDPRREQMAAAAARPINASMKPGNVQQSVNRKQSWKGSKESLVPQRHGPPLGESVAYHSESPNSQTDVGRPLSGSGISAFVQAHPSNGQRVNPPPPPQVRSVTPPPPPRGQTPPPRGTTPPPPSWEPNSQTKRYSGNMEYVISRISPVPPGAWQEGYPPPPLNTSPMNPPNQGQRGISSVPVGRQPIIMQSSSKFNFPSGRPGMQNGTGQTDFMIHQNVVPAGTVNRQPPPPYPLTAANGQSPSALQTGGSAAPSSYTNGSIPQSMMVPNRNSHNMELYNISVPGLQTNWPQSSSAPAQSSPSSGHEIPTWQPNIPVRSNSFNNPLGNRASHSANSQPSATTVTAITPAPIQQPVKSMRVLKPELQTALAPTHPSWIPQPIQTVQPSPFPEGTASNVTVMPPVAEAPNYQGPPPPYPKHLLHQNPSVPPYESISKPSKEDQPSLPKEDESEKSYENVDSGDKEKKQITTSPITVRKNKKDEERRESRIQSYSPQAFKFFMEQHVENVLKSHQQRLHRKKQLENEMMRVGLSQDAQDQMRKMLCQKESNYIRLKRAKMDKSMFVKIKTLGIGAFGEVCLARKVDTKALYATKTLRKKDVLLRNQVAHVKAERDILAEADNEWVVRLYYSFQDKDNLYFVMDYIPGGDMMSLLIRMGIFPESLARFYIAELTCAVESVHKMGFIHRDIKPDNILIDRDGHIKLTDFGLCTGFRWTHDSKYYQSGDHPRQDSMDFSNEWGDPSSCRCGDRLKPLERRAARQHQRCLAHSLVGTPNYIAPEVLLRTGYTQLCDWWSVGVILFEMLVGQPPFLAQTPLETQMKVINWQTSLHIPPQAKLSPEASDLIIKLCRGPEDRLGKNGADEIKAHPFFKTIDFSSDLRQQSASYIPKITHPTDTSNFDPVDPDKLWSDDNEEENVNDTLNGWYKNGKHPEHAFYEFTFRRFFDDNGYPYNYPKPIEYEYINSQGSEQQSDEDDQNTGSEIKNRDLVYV

[2] = test system: Phosphatidylinositol 4,5-bisphosphate 3-kinase catalytic subunit alpha isoform (Homo sapiens), P42336 [E545K]; assay: Inhibition of PIK3CA E545K mutant (unknown origin) assessed as residual activity at 100 nM by KINOMEscan analysis relative to control
[3] = target: Serine/threonine-protein kinase RIO2 (Homo sapiens) (UniProt Q9BVS4); assay: Inhibition of RIOK2 (unknown origin) assessed as residual activity at 100 nM by KINOMEscan analysis relative to control
[4] = target: T2, Serine/threonine-protein kinase ULK1 (Homo sapiens) (UniProt O75385); assay: Inhibition of ULK1 (unknown origin) assessed as residual activity at 100 nM by KINOMEscan analysis relative to control
T2 sequence (whole entry): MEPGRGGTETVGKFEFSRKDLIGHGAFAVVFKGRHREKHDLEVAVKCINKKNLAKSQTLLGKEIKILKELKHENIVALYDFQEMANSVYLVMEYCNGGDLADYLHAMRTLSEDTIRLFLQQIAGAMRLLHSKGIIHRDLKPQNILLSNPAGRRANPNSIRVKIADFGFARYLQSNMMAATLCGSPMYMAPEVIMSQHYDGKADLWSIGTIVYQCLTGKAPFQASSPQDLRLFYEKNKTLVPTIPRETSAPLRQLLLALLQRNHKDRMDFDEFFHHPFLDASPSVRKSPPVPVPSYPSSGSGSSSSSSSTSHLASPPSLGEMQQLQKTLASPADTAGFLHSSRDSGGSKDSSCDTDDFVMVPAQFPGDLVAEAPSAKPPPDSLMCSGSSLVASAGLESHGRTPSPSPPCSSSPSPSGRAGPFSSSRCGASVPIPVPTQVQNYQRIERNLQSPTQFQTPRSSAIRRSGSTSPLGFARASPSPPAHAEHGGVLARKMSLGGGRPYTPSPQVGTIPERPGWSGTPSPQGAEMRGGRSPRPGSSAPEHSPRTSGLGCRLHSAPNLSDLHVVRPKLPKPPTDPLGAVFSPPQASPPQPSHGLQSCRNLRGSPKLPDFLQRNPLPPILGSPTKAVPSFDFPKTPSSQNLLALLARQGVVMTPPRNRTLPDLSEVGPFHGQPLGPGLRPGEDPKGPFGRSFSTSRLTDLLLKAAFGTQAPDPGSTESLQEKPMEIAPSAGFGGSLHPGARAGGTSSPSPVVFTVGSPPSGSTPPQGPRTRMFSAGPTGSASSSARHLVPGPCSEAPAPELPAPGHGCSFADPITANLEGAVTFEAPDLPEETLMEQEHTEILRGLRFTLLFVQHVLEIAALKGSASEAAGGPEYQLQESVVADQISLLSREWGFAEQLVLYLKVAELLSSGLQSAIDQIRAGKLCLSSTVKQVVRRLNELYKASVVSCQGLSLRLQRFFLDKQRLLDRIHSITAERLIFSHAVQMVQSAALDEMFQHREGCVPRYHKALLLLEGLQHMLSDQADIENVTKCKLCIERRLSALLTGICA

Chain of Serine/threonine-protein kinase RIO2 (Homo sapiens) (Q9BVS4 whole entry, looked up): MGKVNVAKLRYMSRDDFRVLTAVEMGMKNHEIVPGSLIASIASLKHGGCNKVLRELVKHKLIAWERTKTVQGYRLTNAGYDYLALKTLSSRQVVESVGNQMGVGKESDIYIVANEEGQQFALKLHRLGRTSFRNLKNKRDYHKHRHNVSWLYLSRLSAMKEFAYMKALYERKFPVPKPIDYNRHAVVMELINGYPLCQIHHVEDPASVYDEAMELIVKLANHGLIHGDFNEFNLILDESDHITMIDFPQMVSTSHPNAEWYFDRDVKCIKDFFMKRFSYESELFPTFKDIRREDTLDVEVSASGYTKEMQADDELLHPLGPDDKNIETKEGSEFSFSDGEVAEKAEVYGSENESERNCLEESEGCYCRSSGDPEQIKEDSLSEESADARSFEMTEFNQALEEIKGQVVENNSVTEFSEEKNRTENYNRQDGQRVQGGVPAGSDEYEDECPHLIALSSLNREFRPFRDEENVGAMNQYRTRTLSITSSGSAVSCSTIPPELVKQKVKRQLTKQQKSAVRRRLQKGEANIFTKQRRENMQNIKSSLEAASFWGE
Chain of Phosphatidylinositol 4,5-bisphosphate 3-kinase catalytic subunit alpha isoform (Homo sapiens), P42336 [E545K] (P42336 whole entry E545K, canonical isoform): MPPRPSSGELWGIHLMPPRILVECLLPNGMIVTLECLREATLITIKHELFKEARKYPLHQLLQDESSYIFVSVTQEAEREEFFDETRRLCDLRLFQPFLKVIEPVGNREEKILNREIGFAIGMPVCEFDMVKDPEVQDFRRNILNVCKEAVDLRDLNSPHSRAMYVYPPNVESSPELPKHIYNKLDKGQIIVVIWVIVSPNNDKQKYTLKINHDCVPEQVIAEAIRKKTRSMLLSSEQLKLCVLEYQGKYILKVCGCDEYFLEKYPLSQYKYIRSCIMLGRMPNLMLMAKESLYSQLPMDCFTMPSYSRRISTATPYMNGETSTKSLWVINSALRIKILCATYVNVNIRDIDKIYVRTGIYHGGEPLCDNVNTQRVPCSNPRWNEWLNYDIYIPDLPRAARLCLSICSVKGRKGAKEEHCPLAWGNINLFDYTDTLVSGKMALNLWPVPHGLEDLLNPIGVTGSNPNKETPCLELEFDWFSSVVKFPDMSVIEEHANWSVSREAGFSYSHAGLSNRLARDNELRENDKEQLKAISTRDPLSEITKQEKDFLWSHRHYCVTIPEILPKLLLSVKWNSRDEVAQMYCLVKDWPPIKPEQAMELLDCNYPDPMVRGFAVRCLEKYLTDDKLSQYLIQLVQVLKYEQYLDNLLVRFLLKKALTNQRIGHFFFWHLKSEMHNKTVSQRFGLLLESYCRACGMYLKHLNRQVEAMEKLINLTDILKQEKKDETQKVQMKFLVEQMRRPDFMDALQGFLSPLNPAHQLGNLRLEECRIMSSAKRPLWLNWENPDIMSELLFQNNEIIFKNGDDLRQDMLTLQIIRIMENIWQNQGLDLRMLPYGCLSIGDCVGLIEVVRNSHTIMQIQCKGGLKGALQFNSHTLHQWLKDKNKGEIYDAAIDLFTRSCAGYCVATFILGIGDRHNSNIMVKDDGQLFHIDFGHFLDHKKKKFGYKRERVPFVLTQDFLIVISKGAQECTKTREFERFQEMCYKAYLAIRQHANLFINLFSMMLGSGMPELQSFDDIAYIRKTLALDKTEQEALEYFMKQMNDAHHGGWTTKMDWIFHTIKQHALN

COc1cc2ncnc(N[C@H](C)c3cccc4ccccc34)c2cc1OC
Activity [1]: 97%
Activity [2]: 75%
Activity [3]: 65%
Activity [4]: 96%
